“Also recorded” adds a separate entry of the source. Where two headings read alike, the source gives them in different places.
How the values were obtained:
[1] = test system: whole cells of A. radiobacter; assay: [14C]glucose uptake by whole cells grown under glucose limitation; format: cell-based, Agrobacterium radiobacter NCIB 11883; settings: for Effect on rate of [14C]glucose uptake by whole cells (in words): unlabelled analogue at 40:1 molar excess, glucose-limited cells; for Glucose uptake rate after pre-incubation with respiratory substrate (in words): 10 mM, pre-incubated before addition of [14C]glucose
Method: Organism and growth conditions. Agrobacterium radiobacter NCIB 11883 was grown at 30° C. in continuous culture (D=0.045 h^-1) under glucose limitation using a chemically defined medium (Linton et al., 1987) supplemented with glucose (4 gl^-1), ammonium sulfate (3 gl^-1) and nitrilotriacetic acid (0.142 gl^-1). The organism was grown in an LH Series 500 chemostat of 2 l working volume at a steady-state biomass density of 2.1 g dry wt 1^-1.
Measurement of glucose uptake. Rates of glucose uptake were determined by measuring the incorporation of D-[U-^14 C]glucose into whole cells over a period of 60 s. Assays were carried out in an open-topped Rank oxygen electrode vessel containing 1 ml 20 mM HEPES/KOH buffer, pH 7.0, and 1 mg dry wt cells. The contents of the vessel were maintained at 30° C. and mixed continuously using a magnetic stirrer. Assays were started by adding D-[U-^14 C]glucose [2 mCi mmol^-1 (74 MBq mmol^-1; 0.5 uCi (18.5 KBl)] to give a final concentration of 250 uM. Samples (50 ul) of the reaction mixture were withdrawn at 15 s intervals and the cells were collected on nitrocellulose filters of 0.45 uM pore size (2.5 cm dia.; Sartorius) by means of a manifold connected to a vacuum line. The filters were washed immediately using 3 ml 20 mM HEPES, pH 7.0, dried under an infra-red lamp and then immersed in 3 ml of Fisofluor 3 scintillant (Fisons Ltd.). The extent of incorporation of [^14 C]glucose into the cells was determined by counting the radioactivity on the filters using a Hewlett Packard Tri-Carb liquid scintillation counter (80-85% efficiency).
In order to measure glucose uptake rates at low concentrations of substrate (1-5 uM) the cell density was reduced to 0.01 mg ml^-1, the specific activity of the [^14 C]glucose was increased to 84 mCi mmol^-1 (3.2 Gbq mmol^-1) and the rate of incorporation of ^14 C-label into cells was measured over a period of 35 s.
The substrate specificity of the transport system was investigated by determining the extent to which unlabelled glucose analogues (10 mM) reduced the rate of uptake of [^14 C]glucose (250 uM). Cell suspensions were incubated with analogues for 5 s prior to addition of [^14 C]glucose.

[2] = test system: A. radiobacter strain AR9; assay: Effect of glucose analogues on [14C]glucose uptake by strain AR9 grown under glucose limitation; format: cell-based, Agrobacterium radiobacter; settings: for activity at 10000 µM: Agrobacterium radiobacter, AR9, pH 7, unlabelled sugars 10 mM, [14C]glucose 250M, glucose-limited culture D = 0.045 h^-1, control rate 63 nmol min^-1 (mg dry wt)^-1
Method: (§1) Measurement of glucose uptake. […] Assays were carried out in an open-topped Rank oxygen electrode vessel containing 1 ml 20 mM HEPES/KOH buffer, pH 7.0, and 1 mg dry wt cells. The contents of the vessel were maintained at 30° C. and mixed continuously using a magnetic stirrer. […] Samples (50 ul) of the reaction mixture were withdrawn at 15 s intervals and the cells were collected on nitrocellulose filters of 0.45 uM pore size (2.5 cm dia.; Sartorius) by means of a manifold connected to a vacuum line. The filters were washed immediately using 3 ml 20 mM HEPES, pH 7.0, dried under an infra-red lamp and then immersed in 3 ml of Fisofluor 3 scintillant (Fisons Ltd.).

GBP2 [3] = assay: Effect of unlabelled glucose analogues on binding of [14C]glucose to GBP2, equilibrium dialysis; set-up: species or system Agrobacterium radiobacter; settings: for [14C]glucose bound GBP2: 0.5 nmol pure protein, 3 nmol [14C]glucose plus 120 nmol unlabelled analogue, 30 h, 4° C.; for Effect on binding of glucose to GBP2 (in words): competition with [14C]glucose in vitro
Method: (§2) The capacity of glucose analogues to reduce the extent of binding of D-[U-^14 C]glucose to pure proteins was determined by modifying the assay procedure as follows. One chamber of each cell contained 0.5 nmol pure protein in 0.3 ml bis-Tris, pH 6.8, and the other chamber was loaded with 0.3 ml of buffer containing 3 nmol D-[U-^14 C]glucose [85 mCi mmol^-1 (3.2 GBq mmol )] plus 120 nmol of an unlabelled glucose analogue. The quantity of [^14 C]glucose that bound to the proteins in the presence and absence of unlabelled glucose analogues was determined after 30 h incubation.

GBP1 [4] = assay: Effect of unlabelled glucose analogues on binding of [14C]glucose to GBP1, equilibrium dialysis; set-up: species or system Agrobacterium radiobacter; settings: for [14C]glucose bound GBP1: 0.5 nmol pure protein, 3 nmol [14C]glucose plus 120 nmol unlabelled analogue, 30 h, 4° C.; for Effect on binding of glucose to GBP1 (in words): competition with [14C]glucose in vitro
Method: as §2

[5] = test system: A. radiobacter strain AR18; assay: Effect of glucose analogues on [14C]glucose uptake by strain AR18 grown under glucose limitation; format: cell-based, Agrobacterium radiobacter; settings: for activity at 10000 µM: Agrobacterium radiobacter, AR18, pH 7, unlabelled sugars 10 mM, [14C]glucose 250M, glucose-limited culture D = 0.045 h^-1, control rate 72 nmol min^-1 (mg dry wt)^-1
Method: as §1

[6] = test system: A. radiobacter strain AR9; assay: [14C]glucose uptake by strain AR9 grown under ammonia limitation; format: cell-based; settings: Agrobacterium radiobacter, AR9, pH 7; ammonia-limited growth, forty-fold molar excess over [14C]glucose; read-out: Reduction of rate of glucose uptake by strain AR9
Method: (§4) Measurement of glucose uptake. Rates of glucose uptake were determined by measuring the incorporation of D-[U-^14 C]glucose into whole cells over a period of 60 s. Assays were carried out in an open-topped Rank oxygen electrode vessel containing 1 ml 20 mM HEPES/KOH buffer, pH 7.0, and 1 mg dry wt cells. The contents of the vessel were maintained at 30° C. and mixed continuously using a magnetic stirrer. Assays were started by adding D-[U-^14 C]glucose [2 mCi mmol^-1 (74 MBq mmol^-1 ; 0.5 uCi (18.5 KBl)] to give a final concentration of 250 uM. Samples (50 ul) of the reaction mixture were withdrawn at 15 s intervals and the cells were collected on nitrocellulose filters of 0.45 uM pore size (2.5 cm dia.; Sartorius) by means of a manifold connected to a vacuum line. The filters were washed immediately using 3 ml 20 mM HEPES, pH 7.0, dried under an infra-red lamp and then immersed in 3 ml of Fisofluor 3 scintillant (Fisons Ltd.). The extent of incorporation of [^14 C]glucose into the cells was determined by counting the radioactivity on the filters using a Hewlett Packard Tri-Carb liquid scintillation counter (80-85% efficiency). Glucose uptake rates were measured in triplicate for each batch of cells and the standard errors never exceeded 10% of the mean values. […]

[7] = test system: A. radiobacter strain AR18; assay: [14C]glucose uptake by strain AR18 grown under ammonia limitation; format: cell-based; settings: Agrobacterium radiobacter, AR18, pH 7; ammonia-limited growth, forty-fold molar excess over [14C]glucose; read-out: Reduction of rate of glucose uptake by strain AR18
Method: as §4

[8] = test system: whole cells of A. radiobacter; assay: Capacity of whole cells to accumulate [14C]glucose; format: cell-based, Agrobacterium radiobacter NCIB 11883
Method: The capacity of A. radiobacter to accumulate glucose was determined by incubating cell suspensions (1 mg dry wt ml^-1) with D-[U-^14 C]glucose [84 mCi mmol^-1 (3.2 Gbq mmol^-1); 20M initial concentration). Samples (100 ul) of the suspension were withdrawn 10s after adding the glucose and the cells were collected on nitrocellulose filters (0.45 um pore size) using vacuum filtration. The filters were washed immediately using 3 ml buffer and immersed in 20 ml boiling water. Aqueous extracts prepared from four filters were pooled, lyophilized and the residue dissolved in 2 ml water. The glucose content of the cells was determined using liquid scintillation counting following separation of [^14 C]glucose from other labelled metabolites present in the extracts using paper chromatography. Samples of the filtrate plus washings were also counted in order to determine the extracellular concentration of glucose at the time of sampling.

GBP1 [9] = assay: Binding of [14C]glucose to pure GBP1, equilibrium dialysis, Scatchard analysis; set-up: species or system Agrobacterium radiobacter
Method: (§3) Determination of binding constants using equilibrium dialysis. This was carried out at 4° C. using an eight-cell rotating module (Hoefer Scientific Instruments, San Fransisco, Calif., U.S.A.). Each cell was divided into two chambers of 0.5 ml volume using a dialysis membrane (Mr cut-off=6-8000). Pure protein (0.5 nmol) was added to one chamber of each cell in 0.3 ml bis-Tris, pH 6.8. Each of the opposing chambers was loaded with 0.3 ml bis-Tris (0.3 ml) containing D-[U-^14 C]glucose [270 mCi mmol^-1 (10 GBq mmol^-1)], the concentration of which was varied over an appropriate range. The module was rotated at 10 rev min^-1 for 30 h (by which time equilibrium had been attained) and samples (50 ul) were taken in triplicate from each chamber and counted in 3 ml Fisofluor 2 (Fisons Ltd.). The data were analyzed according to the method of Scatchard (1949).

[10] = test system: third protein (Mr 30500), BP3; assay: Binding of [14C]glucose to the third periplasmic protein (BP3), equilibrium dialysis; set-up: species or system Agrobacterium radiobacter
Method: as §3

GBP2 [11] = assay: Binding of [14C]glucose to pure GBP2, equilibrium dialysis, Scatchard analysis; set-up: species or system Agrobacterium radiobacter
Method: as §3

[12] = glucose-limited culture, unlabelled sugar 10 mM

SMILES	activity at 10000 µM [2] [%]	[14C]glucose bound GBP2 (GBP2 [3]) [% control value]	Effect on binding of glucose to GBP2 (in words) (GBP2 [3])	[14C]glucose bound GBP1 (GBP1 [4]) [% control value]	Effect on binding of glucose to GBP1 (in words) (GBP1 [4])	activity at 10000 µM [5] [%]	other results
O=CC[C@@H](O)[C@H](O)[C@H](O)CO [2-deoxy-D-glucose]	71	98	did not affect	96	did not affect	93	Effect on rate of [14C]glucose uptake by whole cells (in words) [1]: none of these unlabelled analogues appreciably reduced; also recorded: failed to reduce significantly; Effect on rate of glucose uptake by strain AR9 (in words) [2, 12]: reduced the rate of glucose uptake to a relatively small extent; Effect on binding of glucose to GBP2 (in words) (GBP2 [3]; listed as 2-Deoxy-D-glucose): had no effect; Effect on binding of glucose to GBP1 (in words) (GBP1 [4]; listed as 2-Deoxy-D-glucose): had no effect; Effect on rate of glucose uptake by strain AR18 (in words) [5, 12]: reduced the rate of glucose uptake to a relatively small extent
CO[C@H]1[C@H](O)[C@@H](CO)OC(O)[C@@H]1O (stereo partly drawn) [3-O-methyl-D-glucose]	99	103	did not affect	100	did not affect	111	Effect on rate of [14C]glucose uptake by whole cells (in words) [1]: none of these unlabelled analogues appreciably reduced; also recorded: failed to reduce significantly
OC1O[C@H](CCl)[C@@H](O)[C@H](O)[C@H]1O (stereo partly drawn) [6-chloro-6-deoxy-D-glucose]	33	60	variably decreased; also recorded: significantly reduced	0	variably decreased; also recorded: significantly reduced	8	–
C[C@@H](O)[C@@H](O)[C@H](O)[C@@H](O)C=O [6-deoxy-D-glucose]	11	0	variably decreased; also recorded: significantly reduced	51	variably decreased; also recorded: significantly reduced	27	–
C[C@@H](O)[C@H](O)[C@H](O)[C@@H](O)C=O [D-fucose]	68	99	only effective with GBP1	31	only effective with GBP1	18	–
O=C[C@H](O)[C@@H](O)[C@@H](O)[C@H](O)CO [D-galactose]	75	99	–	2	–	8	Effect on binding of glucose to GBP2 (in words) (GBP2 [3]; listed as D-Galactose): only effective with GBP1; Effect on binding of glucose to GBP1 (in words) (GBP1 [4]; listed as D-Galactose): only effective with GBP1; inhibition at 10000 µM [6]: ~50%; inhibition at 10000 µM [7]: ~95%
O=C[C@H](O)[C@@H](O)[C@H](O)[C@H](O)CO [D-glucose]	4	4	–	4	–	4	Km ([1]; [14C]glucose varied over the range 1 M-1 mM, whole cells): < 1 µM; Accumulation ratio ([glucose]in/[glucose]out) [8]: > 2000; Accumulation ratio ([glucose]in/[glucose]out) ([8]; 10 s incubation, assuming an intracellular volume of 1-3 ul mg dry wt^-1): 2000-6000; Kd (GBP1 [9]; as printed in the summary, read-out: KD of D-glucose for GBP1 (summary)): 230 nM; Kd (GBP1 [9]; equilibrium dialysis, 4° C., pH 6.8, read-out: KD of glucose for GBP1): 230 nM; Binding of D-glucose to the third protein (Mr 30500) (in words) [10]: no binding ability; Kd (GBP2 [11]; as printed in the summary, read-out: KD of D-glucose for GBP2 (summary)): 70 nM; Kd (GBP2 [11]; equilibrium dialysis, 4° C., pH 6.8, read-out: KD of glucose for GBP2): 70 nM
O=C[C@H](O)[C@@H](O)[C@H](O)CO [D-xylose]	–	2	significantly reduced	72	significantly reduced	64	–
N#CC(C#N)=NNc1ccc(OC(F)(F)F)cc1 [FCCP, carbonyl cyanide p-trifluoromethoxyphenylhydrazone]	–	–	–	–	–	–	Inhibition of glucose transport ([1]; at 20 M, added 10 s before glucose): approximately 95%
CO[C@H]1O[C@H](CO)[C@@H](O)[C@H](O)[C@H]1O [alpha-1-O-methyl-D-glucose]	99	104	did not affect	99	did not affect	111	Effect on rate of [14C]glucose uptake by whole cells (in words) [1]: none of these unlabelled analogues appreciably reduced; Effect on rate of [14C]glucose uptake by whole cells (in words) ([1]; listed as Alpha-1-O-methyl-D-glucose): failed to reduce significantly
CCO [ethanol]	–	–	–	–	–	–	Glucose uptake rate after pre-incubation with respiratory substrate (in words) [1]: did not increase
OCC(O)CO [glycerol]	–	–	–	–	–	–	Glucose uptake rate after pre-incubation with respiratory substrate (in words) [1]: did not increase

— patent US5125099A, “Obtaining heteropolysaccharide-producing microorganism and the microorganism agrobacterium radiobacter NCIB 40018” (Shell Internationale Research Maatschappij B.V., priority 1988, dated 1992)
